For this experiment, the system named is L1210 leukemia ip in BDF1 mice, survival T/C. Briefly: NCI In Vivo Anticancer Drug Screen. Data for tumor model L1210 Leukemia (intraperitoneal) in B6D2F1 (BDF1) mice. Particulars: endpoint: mean survival time, higher = longer survival. In outline: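 Survival endpoint. Drug-treated group vs vehicle group, expressed as T divided by C. Tumor passaged by transplantation.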

[1] abbreviates: dose: 100.0 mg/kg/injection, schedule: Q01DX Z (ip), vehicle: saline.
Where [2] appears, read: dose: 100.0 mg/kg/injection, schedule: Q01DX009 (ip), vehicle: saline with Tween-80.
[3] abbreviates: dose: 100.0 mg/kg/injection, schedule: Q01DX001 (ip), vehicle: carboxymethylcellulose (CMC).
[4] abbreviates: dose: 200.0 mg/kg/injection, schedule: Q01DX001 (ip), vehicle: carboxymethylcellulose (CMC).
The mark [5] stands for this setting: dose: 400.0 mg/kg/injection, schedule: Q01DX001 (ip), vehicle: carboxymethylcellulose (CMC).

“And” between values parts separate entries of the source, which are not always exact repeats. Identical values can stand only once. Inconclusive results and toxic doses are left out.

Consider `CN(C)CC(=O)c1ccc(O)c(O)c1`, for which the T/C (dose: 29.5 mg/kg/injection, schedule: Q#A X Z (ip), vehicle: saline) was 123 % of control; the T/C (dose: 44.5 mg/kg/injection, schedule: Q#A X Z (ip), vehicle: saline) is 124 % of control; the T/C (dose: 50.0 mg/kg/injection, schedule: Q01DX Z (ip), vehicle: saline) is 109 % of control; the T/C (dose: 75.0 mg/kg/injection, schedule: Q01DX010 (ip), vehicle: saline) was 112 % of control and 114 % of control; the T/C (dose: 75.0 mg/kg/injection, schedule: Q01DX Z (ip), vehicle: carboxymethylcellulose (CMC)) was 110 % of control; the T/C (dose: 75.0 mg/kg/injection, schedule: Q01DX Z (ip), vehicle: clinical formulation) is 110 % of control and 113 % of control. The T/C is 112 % of control (dose: 75.0 mg/kg/injection, schedule: Q01DX Z (ip), vehicle: water); 116 % of control under setting [1]; 124 % of control (dose: 133.0 mg/kg/injection, schedule: Q01DX Z (ip), vehicle: saline); 112 % of control (dose: 150.0 mg/kg/injection, schedule: Q01DX Z (ip), vehicle: carboxymethylcellulose (CMC)); 116 % of control (dose: 150.0 mg/kg/injection, schedule: Q01DX Z (ip), vehicle: clinical formulation); 124 % of control (dose: 150.0 mg/kg/injection, schedule: Q01DX Z (ip), vehicle: water). For the same compound, the T/C (dose: 150.0 mg/kg/injection, schedule: Q#A X Z (ip), vehicle: saline) is 118 % of control; the T/C (dose: 200.0 mg/kg/injection, schedule: Q01DX007 (iv), vehicle: saline) was 104 % of control; the T/C (dose: 200.0 mg/kg/injection, schedule: Q01DX Z (sc), vehicle: saline) is 108 % of control; the T/C (dose: 200.0 mg/kg/injection, schedule: Q## X Z (ip), vehicle: saline) was 100 % of control; the T/C (dose: 266.0 mg/kg/injection, schedule: Q03DX Z (ip), vehicle: saline) was 123 % of control; the T/C (dose: 300.0 mg/kg/injection, schedule: Q01DX007 (iv), vehicle: saline) is 95 % of control. Moreover, the T/C by setting is: (dose: 300.0 mg/kg/injection, schedule: Q01DX Z (ip), vehicle: clinical formulation) 118 % of control; (dose: 300.0 mg/kg/injection, schedule: Q01DX Z (ip), vehicle: water) 116 % of control; (dose: 300.0 mg/kg/injection, schedule: Q01DX Z (sc), vehicle: saline) 108 % of control; (dose: 300.0 mg/kg/injection, schedule: Q## X Z (ip), vehicle: saline) 100 % of control; (dose: 400.0 mg/kg/injection, schedule: Q03DX Z (ip), vehicle: saline) 117 % of control; (dose: 450.0 mg/kg/injection, schedule: Q01DX Z (ip), vehicle: saline) 153 % of control. For the same compound, the T/C by setting is: (dose: 450.0 mg/kg/injection, schedule: Q01DX Z (sc), vehicle: saline) 103 % of control; (dose: 450.0 mg/kg/injection, schedule: Q## X Z (ip), vehicle: saline) 100 % of control; (dose: 532.0 mg/kg/injection, schedule: Q01DX Z (oral), vehicle: saline) 94 % of control; (dose: 600.0 mg/kg/injection, schedule: Q03DX Z (ip), vehicle: saline) 102 % of control and 112 % of control (2×); (dose: 622.0 mg/kg/injection, schedule: Q07DX Z (ip), vehicle: saline) 115 % of control; (dose: 675.0 mg/kg/injection, schedule: Q01DX Z (sc), vehicle: saline) 116 % of control. In addition, the T/C runs as follows: (dose: 675.0 mg/kg/injection, schedule: Q## X Z (ip), vehicle: saline) 102 % of control; (dose: 800.0 mg/kg/injection, schedule: Q01DX Z (ip), vehicle: carboxymethylcellulose (CMC)) 102 % of control; (dose: 800.0 mg/kg/injection, schedule: Q01DX Z (oral), vehicle: saline) 101 % of control and 88 % of control; (dose: 933.0 mg/kg/injection, schedule: Q07DX Z (ip), vehicle: saline) 104 % of control; (dose: 1200.0 mg/kg/injection, schedule: Q01DX Z (oral), vehicle: saline) 102 % of control and 106 % of control; (dose: 1400.0 mg/kg/injection, schedule: Q07DX Z (ip), vehicle: saline) 113 % of control. Further, the T/C (dose: 1800.0 mg/kg/injection, schedule: Q01DX Z (oral), vehicle: saline) was 100 % of control.
For the compound `Cc1cc(C(=O)O)ccc1S(=O)(=O)F`, the T/C (dose: 25.0 mg/kg/injection, schedule: Q01DX009 (ip), vehicle: saline with Tween-80) is 96 % of control; the T/C (dose: 50.0 mg/kg/injection, schedule: Q01DX009 (ip), vehicle: saline with Tween-80) is 102 % of control; the T/C under setting [2] is 92 % of control and 100 % of control.
Regarding `CS(=O)(=O)c1ccc2c(c1)-c1ccc(N)cc1C2=O`, the T/C by setting is: under setting [3], 117 % of control; under setting [4], 102 % of control; under setting [5], 102 % of control.
Regarding `CCSC(SCC)C(OC(C)=O)C(OC(C)=O)C(OC(C)=O)C(C)OC(C)=O` (configuration not stated), the T/C by setting is: (dose: 100.0 mg/kg/injection, schedule: Q01DX001 (ip), vehicle: saline with Tween-80) 99 % of control; under setting [2], 95 % of control and 89 % of control; (dose: 100.0 mg/kg/injection, schedule: Q04DX002 (ip), vehicle: saline with Tween-80) 93 % of control and 105 % of control; (dose: 100.0 mg/kg/injection, schedule: Q04DX003 (ip), vehicle: saline with Tween-80) 107 % of control; (dose: 200.0 mg/kg/injection, schedule: Q01DX001 (ip), vehicle: saline with Tween-80) 103 % of control; (dose: 200.0 mg/kg/injection, schedule: Q01DX009 (ip), vehicle: saline with Tween-80) 98 % of control and 100 % of control. For the same compound, the T/C is, setting by setting: (dose: 200.0 mg/kg/injection, schedule: Q04DX002 (ip), vehicle: saline with Tween-80) 94 % of control and 92 % of control; (dose: 200.0 mg/kg/injection, schedule: Q04DX003 (ip), vehicle: saline with Tween-80) 91 % of control; (dose: 400.0 mg/kg/injection, schedule: Q01DX001 (ip), vehicle: saline with Tween-80) 101 % of control; (dose: 400.0 mg/kg/injection, schedule: Q01DX009 (ip), vehicle: saline with Tween-80) 87 % of control and 88 % of control; (dose: 400.0 mg/kg/injection, schedule: Q04DX002 (ip), vehicle: saline with Tween-80) 100 % of control and 87 % of control; (dose: 400.0 mg/kg/injection, schedule: Q04DX003 (ip), vehicle: saline with Tween-80) 93 % of control.
In the case of `Clc1nnc2c3ccccc3ccn12`, the T/C is, setting by setting: (dose: 100.0 mg/kg/injection, schedule: Q01DX001 (ip), vehicle: saline) 96 % of control; (dose: 200.0 mg/kg/injection, schedule: Q01DX001 (ip), vehicle: saline) 98 % of control.
On to `O=c1cc(-c2ccccc2)[nH]c2ccc(S(=O)(=O)O)cc12`, for which the T/C runs as follows: (dose: 100.0 mg/kg/injection, schedule: Q04DX003 (ip), vehicle: Klucel (hydroxypropylcellulose) (HPC)) 93 % of control; (dose: 200.0 mg/kg/injection, schedule: Q04DX003 (ip), vehicle: Klucel (hydroxypropylcellulose) (HPC)) 106 % of control; (dose: 400.0 mg/kg/injection, schedule: Q04DX003 (ip), vehicle: Klucel (hydroxypropylcellulose) (HPC)) 96 % of control.
`C/C(=N/O)c1ccc2c(c1)Cc1ccccc1-2`: the T/C is, setting by setting: under setting [3], 105 % of control; under setting [4], 100 % of control; under setting [5], 98 % of control.
Turning to `[CH3][Sn]([CH3])([Br])[CH2]CCBr`, the T/C was 100 % of control (dose: 0.78 mg/kg/injection, schedule: Q01DX009 (ip), vehicle: saline) and 100 % of control (dose: 1.56 mg/kg/injection, schedule: Q01DX009 (ip), vehicle: saline).
With `Cc1ccc(Nc2nc(N)nc(N)c2N)cc1Cl`, under setting [1], the T/C is 104 % of control.
Turning to `[NH-]CC(=O)[N-]CC(=O)O.[NH-]CC(=O)[N-]CC(=O)O.[Ni]`, the T/C was 86 % of control (dose: 25.0 mg/kg/injection, schedule: Q01DX009 (ip), vehicle: saline); 107 % of control (dose: 25.0 mg/kg/injection, schedule: Q04DX003 (ip), vehicle: saline); 116 % of control (dose: 50.0 mg/kg/injection, schedule: Q04DX003 (ip), vehicle: saline); 98 % of control and 92 % of control (dose: 100.0 mg/kg/injection, schedule: Q04DX003 (ip), vehicle: saline).
As for `C=C(NC(C)=O)C(=O)OC`, the T/C was 102 % of control (dose: 75.0 mg/kg/injection, schedule: Q04DX003 (ip), vehicle: saline); 100 % of control (dose: 150.0 mg/kg/injection, schedule: Q04DX003 (ip), vehicle: saline); 97 % of control (dose: 300.0 mg/kg/injection, schedule: Q04DX003 (ip), vehicle: saline).
With `O=C(O)c1ccccc1SSc1ccccc1C(=O)O`, the T/C was 100 % of control (dose: 50.0 mg/kg/injection, schedule: Q01DX001 (ip), vehicle: carboxymethylcellulose (CMC)); 100 % of control under setting [3]; 96 % of control under setting [4]; 103 % of control under setting [5].

Source of the values: PubChem BioAssay AID248 (DTP/NCI, 2004).
